Data set [1] has as its system nonreplicating M. tuberculosis H37Rv. The format is cell-based, Mycobacterium tuberculosis.
Data set [2] deals with M. tuberculosis. Nature of the data set: LORA MBC99, hypoxic. The format is cell-based, Mycobacterium tuberculosis. The note with it: hypoxic conditions (LORA).
Data set [3] in a line: in vivo tolerance assessment, oral gavage. The conditions noted are these: 100 mg/kg daily by oral gavage for 5 days, uninfected mice. More on the design: species or system female BALB/c mice.
The test system of data set [4] is M. abscessus. Put plainly: broth microdilution, A570 readout, non-tuberculosis mycobacteria. The format is cell-based.
The test system of data set [5] is M. chelonae. The data set is described as above. The format is cell-based.
For data set [6], the system named is M. marinum. The data set is described as above. The format is cell-based.
The subject of data set [7] is M. kansasii. Described as above. The format is cell-based.
In data set [8] the test system is M. avium. The data set is described as above. The format is cell-based.
The test system of data set [9] is M. smegmatis. The description is as above. The format is cell-based.
The subject of data set [10] is M. bovis BCG. The format is cell-based.
The subject of data set [11] is E. faecalis. Nature of the data set: MIC, Gram-positive panel. The format is cell-based.
For data set [12], the system named is E. faecium. Put plainly: MIC, Gram-positive panel. The format is cell-based.
In data set [13] the test system is VRE (Vancomycin-resistant E. faecium). Nature of the data set: MIC, Gram-positive panel. The format is cell-based.
Data set [14] relates to S. pyogenes. Nature of the data set: MIC, Gram-positive panel. The format is cell-based.
Data set [15] concerns S. pneumoniae. Put plainly: MIC, Gram-positive panel. The format is cell-based.
Data set [16] has as its system B. thuringiensis. Put plainly: MIC, Gram-positive panel. The format is cell-based.
Data set [17] concerns B. cereus 14579. Put plainly: MIC, Gram-positive panel. The format is cell-based.
Data set [18] has as its system B. cereus 10987. Nature of the data set: MIC, Gram-positive panel. The format is cell-based.
Data set [19] deals with B. anthracis. The format is cell-based.
The subject of data set [20] is B. subtilis. Nature of the data set: MIC, Gram-positive panel. The format is cell-based.
Data set [21] relates to A. baumannii. Put plainly: MIC, Gram-negative panel. The format is cell-based.
The subject of data set [22] is E. coli. Nature of the data set: MIC, Gram-negative panel. The format is cell-based.
The test system of data set [23] is E. cloacae. Nature of the data set: MIC, Gram-negative panel. The format is cell-based.
Data set [24] relates to K. pneumoniae. Put plainly: MIC, Gram-negative panel. The format is cell-based.
Data set [25] has as its system P. aeruginosa. Put plainly: MIC, Gram-negative panel. The format is cell-based.
The test system of data set [26] is P. mirabilis. Nature of the data set: MIC, Gram-negative panel. The format is cell-based.
A short description of data set [27]: liver microsome stability. The conditions noted are these: 1 μM, 30 min, 0.5 mg/mL human liver microsomes. The format is in vitro ADME. In general terms: Microsomes from liver hold many membrane-bound enzymes, among them those of drug oxidation.
The nature of data set [28]: liver microsome stability. The note with it: 1 μM, 30 min, 0.5 mg/mL mouse liver microsomes. The format is in vitro ADME.
Data set [29] deals with Caco-2. Put plainly: Caco-2 bidirectional permeability. The format is in vitro ADME. The conditions noted are these: Caco-2, 5 μM. On the technique in general: Caco-2 cells form a polarised layer with tight junctions and transporters.
Data set [30] in a line: solubility. The format is physicochemical. The conditions noted are these: current study.
The target in data set [31] is human ThyA (HsThyA) (Homo sapiens, UniProt P04818). Put plainly: cell-free ThyA and ThyX enzyme inhibition assay. The format is biochemical. The note with it: purified HsThyA, inhibitor 13 μM, compared to positive control 1843U89.
Data set [32] has as its target M. tuberculosis ThyA (MtThyA) (Mycobacterium tuberculosis, UniProt P9WFR9). Nature of the data set: cell-free ThyA and ThyX enzyme inhibition assay. The format is biochemical.
The target of data set [33] is MtThyX (Mycobacterium tuberculosis, UniProt P9WG57). Nature of the data set: cell-free ThyA and ThyX enzyme inhibition assay. The format is biochemical, M. tuberculosis.
The subject of data set [34] is M. tuberculosis. The format is cell-based.
The conditions of data set [35]: 100 mg/kg intraperitoneally; deposited solid residues; cited from earlier work.
The test system of data set [36] is Staphylococcus aureus strains (FDA209P, ATCC6538P, KB199). The note with it: three Staphylococcus aureus strains (FDA209P, ATCC6538P, KB199); cited from earlier work.
Data set [37] deals with Streptococcus faecium IFO3181. The note with it: cited from earlier work.
In data set [38] the test system is Micrococcus luteus. The conditions noted are these: cited from earlier work.
For data set [39] the following is noted: previous study ref 18; cited from earlier work.
Data set [40] concerns the target thymidylate synthase (E. faecium). The note with it: competitive with coenzyme 5,10-methylenetetrahydrofolate; cited from earlier work.
The subject of data set [41] is M. tuberculosis H37Rv. Nature of the data set: microplate Alamar Blue assay. The format is cell-based. The note with it: Mycobacterium tuberculosis.

In brackets after ≈: the same amount, converted by molar mass. A value given as a limit tells only on which side of the number the result lay.

As usually defined, the MIC is the smallest concentration in the dilution series that meets the test's criterion for growth inhibition. As a reminder, the efflux ratio is a quotient of directional permeabilities that is used to spot active efflux. As usually defined, the Ki is a measure of affinity in units of concentration, obtained from inhibition or displacement.

Sequence of MtThyX (P9WG57 whole entry): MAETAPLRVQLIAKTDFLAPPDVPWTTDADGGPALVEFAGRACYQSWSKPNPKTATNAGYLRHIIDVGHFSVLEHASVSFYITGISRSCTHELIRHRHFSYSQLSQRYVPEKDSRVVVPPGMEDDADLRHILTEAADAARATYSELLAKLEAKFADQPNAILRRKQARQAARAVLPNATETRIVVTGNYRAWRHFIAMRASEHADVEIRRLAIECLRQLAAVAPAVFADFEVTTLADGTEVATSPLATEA
Sequence of human ThyA (HsThyA) (P04818 whole entry): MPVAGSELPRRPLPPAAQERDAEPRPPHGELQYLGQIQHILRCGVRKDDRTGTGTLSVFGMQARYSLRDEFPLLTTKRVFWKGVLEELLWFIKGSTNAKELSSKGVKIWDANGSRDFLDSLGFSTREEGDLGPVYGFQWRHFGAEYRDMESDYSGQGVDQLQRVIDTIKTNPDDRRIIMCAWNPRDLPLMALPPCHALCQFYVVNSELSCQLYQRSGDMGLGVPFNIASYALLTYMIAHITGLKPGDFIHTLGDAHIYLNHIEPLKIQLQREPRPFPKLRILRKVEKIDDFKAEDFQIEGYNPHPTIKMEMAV
Sequence of M. tuberculosis ThyA (MtThyA) (P9WFR9 whole entry): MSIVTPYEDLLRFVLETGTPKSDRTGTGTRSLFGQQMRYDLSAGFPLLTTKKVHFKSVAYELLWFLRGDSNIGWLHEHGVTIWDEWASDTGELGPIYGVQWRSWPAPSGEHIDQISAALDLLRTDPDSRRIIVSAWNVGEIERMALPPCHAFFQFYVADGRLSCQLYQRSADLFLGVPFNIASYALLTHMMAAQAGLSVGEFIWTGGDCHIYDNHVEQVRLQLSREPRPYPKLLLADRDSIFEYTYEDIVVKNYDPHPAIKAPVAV

As for `CCCc1c2c([nH]c(=O)c1C)C(=O)c1[nH]c(=O)c(C)c(CCC)c1C2=O` [Compound 3, diazaquinomycin A], the MIC in [1] was 0.72 µg/mL (≈ 2.03 µM); in [4], more than 7.5 µg/mL; in data set [5] it was more than 7.5 µg/mL; in [6], more than 7.5 µg/mL; in [7], more than 7.5 µg/mL; in [8] it was 3.85 µg/mL (≈ 10.9 µM). Also, the MIC in data set [9] is 4.56 µg/mL (≈ 12.9 µM); in data set [10], 0.12 µg/mL (≈ 0.339 µM); in data set [11], 8 µg/mL (≈ 22.6 µM); in data set [12], 8 µg/mL (≈ 22.6 µM); in data set [13], 32 µg/mL (≈ 90.3 µM); in [14], more than 25 µg/mL. For the same molecule, the MIC in data set [15] was more than 10 µg/mL; in [16], 25 µg/mL (≈ 70.5 µM); in data set [17], 25 µg/mL (≈ 70.5 µM); in data set [18], 12.5 µg/mL (≈ 35.3 µM); in data set [19], 6.25 µg/mL (≈ 17.6 µM); in data set [20], 100 µg/mL (≈ 282 µM). Also, the MIC in [21] is 128 µg/mL (≈ 361 µM); in [22], 128 µg/mL (≈ 361 µM); in data set [23], 64 µg/mL (≈ 181 µM); in [24] it was 128 µg/mL (≈ 361 µM); in data set [25] it was 128 µg/mL (≈ 361 µM); in [26], 64 µg/mL (≈ 181 µM). The MIC in [36] is 6.25 µg/mL (≈ 17.6 µM); in [37], 6.25 µg/mL (≈ 17.6 µM); in data set [38], 1.13 µg/mL (≈ 3.19 µM). Moreover, the MBC99 result in data set [2] is on record as “did not exhibit a significant MBC99”. The tolerance in vivo result in data set [3] is reported as “well tolerated”. Also, the results for the parent compound remaining in data set [27] and in data set [28] were 96% and 98%, respectively. In data set [29], the efflux ratio turned out to be 0.2. Moreover, the “permeability (from apical to basolateral)” value in data set [29] stood at 44 nm/s. Moreover, in data set [29], the “permeability (from basolateral to apical)” value is 9 nm/s. Besides, in data set [29], the “recovery (from apical to basolateral)” value was 82%. The “recovery (from basolateral to apical)” value in data set [29] was determined as 98%. Moreover, in [30], the “maximum room temperature concentration in DMSO” value was found to be 600 µg/mL. Moreover, the “inhibition of enzyme activity” value in data set [31], in data set [32] and in data set [33] was “did not significantly inhibit” each time. The “reversal of antibiotic properties by thymidine” value in data set [34] is “no reversal”. Moreover, the toxicity in vivo entry in data set [35] is “acute toxicity”. The “maximum room temperature concentration in water” value in [39] is 0.15 µg/mL. For the same molecule, the Ki in [40] was 36 µM.

In turn, `O=[N+]([O-])c1cn2c(n1)OC[C@@H](OCc1ccc(OC(F)(F)F)cc1)C2` [PA824] displayed an MIC in data set [41] of 0.01 µg/mL (≈ 0.0278 µM).

The values above are taken from publication PMC4648258 (ACS infectious diseases, 2015).
